Measurements published in publication PMC12748989 (Nature Communications, 2025).

Legend:
PBMC = conditions: 12.5 µM

Row | Compound | Average (percentage cell inhibition), Dmastoparan MDA-MB231 12.5uM (MDA-MB-231 cells) | Average (percentage cell inhibition), Mastoparan PBMC (PBMC) | Average 6.5uM (MDA-MB-231 cells)
1 | CC[C@H](C)[C@H](N)C(=O)N[C@H](C(=O)N[C@@H](CC(C)C)C(=O)N[C@@H](CCCCN)C(=O)N[C@@H](C)C(=O)N[C@@H](CC(C)C)C(=O)N[C@@H](C)C(=O)N[C@@H](C)C(=O)N[C@@H](CC(C)C)C(=O)N[C@@H](C)C(=O)N[C@@H](CCCCN)C(=O)N[C@@H](CCCCN)C(=O)N[C@H](C(=O)N[C@@H](CC(C)C)C(N)=O)[C@@H](C)CC)[C@@H](C)CC [I2] | 82.9517% | 42.1735% | 
2 | CC[C@H](C)[C@H](N)C(=O)N[C@@H](CC(N)=O)C(=O)N[C@@H](CC(C)C)C(=O)N[C@@H](CCCCN)C(=O)N[C@@H](C)C(=O)N[C@@H](CC(C)C)C(=O)N[C@@H](C)C(=O)N[C@@H](CC(N)=O)C(=O)N[C@@H](CC(C)C)C(=O)N[C@@H](C)C(=O)N[C@@H](CCCCN)C(=O)N[C@@H](CCCCN)C(=O)N[C@H](C(=O)N[C@@H](CC(C)C)C(N)=O)[C@@H](C)CC [N8] | 46.3177% | 16.8851% | 
3 | CC[C@H](C)[C@H](N)C(=O)N[C@@H](CC(N)=O)C(=O)N[C@@H](CC(C)C)C(=O)N[C@@H](CCCCN)C(=O)N[C@@H](Cc1c[nH]c2ccccc12)C(=O)N[C@@H](CC(C)C)C(=O)N[C@@H](C)C(=O)N[C@@H](C)C(=O)N[C@@H](CC(C)C)C(=O)N[C@@H](C)C(=O)N[C@@H](CCCCN)C(=O)N[C@@H](CCCCN)C(=O)N[C@H](C(=O)N[C@@H](CC(C)C)C(N)=O)[C@@H](C)CC [W5] | 97.3063% | 88.7179% | 75.0546%
4 | CC[C@H](C)[C@H](NC(=O)[C@H](CCCCN)NC(=O)[C@H](CCCCN)NC(=O)[C@H](C)NC(=O)[C@H](CC(C)C)NC(=O)[C@H](C)NC(=O)[C@H](C)NC(=O)[C@H](CC(C)C)NC(=O)[C@H](C)NC(=O)[C@H](CCCCN)NC(=O)[C@H](CC(C)C)NC(=O)[C@H](CC(N)=O)NC(=O)[C@@H](N)CCCNC(=N)N)C(=O)N[C@@H](CC(C)C)C(N)=O [R1] | 31.3783% | -2.103% | 
5 | CC[C@H](C)[C@H](N)C(=O)N[C@@H](CO)C(=O)N[C@@H](CC(C)C)C(=O)N[C@@H](CCCCN)C(=O)N[C@@H](C)C(=O)N[C@@H](CC(C)C)C(=O)N[C@@H](C)C(=O)N[C@@H](C)C(=O)N[C@@H](CC(C)C)C(=O)N[C@@H](C)C(=O)N[C@@H](CCCCN)C(=O)N[C@@H](CCCCN)C(=O)N[C@H](C(=O)N[C@@H](CC(C)C)C(N)=O)[C@@H](C)CC [S2] | 39.9159% | 20.6714% | 
6 | CC[C@H](C)[C@H](N)C(=O)N[C@@H](CC(N)=O)C(=O)N[C@@H](CC(C)C)C(=O)N[C@@H](CCCCN)C(=O)N[C@@H](C)C(=O)N[C@@H](CC(C)C)C(=O)N[C@@H](C)C(=O)N[C@@H](C)C(=O)N[C@@H](Cc1ccc(O)cc1)C(=O)N[C@@H](C)C(=O)N[C@@H](CCCCN)C(=O)N[C@@H](CCCCN)C(=O)N[C@H](C(=O)N[C@@H](CC(C)C)C(N)=O)[C@@H](C)CC [Y9] | 27.288% | 11.8226% | 
7 | CC[C@H](C)[C@H](N)C(=O)N[C@@H](CC(N)=O)C(=O)N[C@@H](CC(C)C)C(=O)N[C@@H](CCCCN)C(=O)N[C@@H](C)C(=O)N[C@@H](CC(C)C)C(=O)N[C@@H](C)C(=O)N[C@@H](C)C(=O)N[C@@H](CC(C)C)C(=O)N[C@@H](C)C(=O)N[C@@H](CCCCN)C(=O)N[C@@H](CCCCN)C(=O)N[C@@H](Cc1c[nH]cn1)C(=O)N[C@@H](CC(C)C)C(N)=O [H13] | 24.5783% | -0.416% | 
8 | CC[C@H](C)[C@H](N)C(=O)N[C@@H](CC(N)=O)C(=O)N[C@@H](CC(C)C)C(=O)N[C@@H](CCCCN)C(=O)N[C@@H](C)C(=O)N[C@@H](CC(C)C)C(=O)N1CCC[C@H]1C(=O)N[C@@H](C)C(=O)N[C@@H](CC(C)C)C(=O)N[C@@H](C)C(=O)N[C@@H](CCCCN)C(=O)N[C@@H](CCCCN)C(=O)N[C@H](C(=O)N[C@@H](CC(C)C)C(N)=O)[C@@H](C)CC [P7] | -0.6456% | -9.322% | 
9 | CC[C@H](C)[C@H](NC(=O)[C@H](CCCCN)NC(=O)[C@H](CCCCN)NC(=O)[C@H](C)NC(=O)[C@H](CC(C)C)NC(=O)[C@H](C)NC(=O)[C@H](C)NC(=O)[C@H](CC(C)C)NC(=O)[C@H](C)NC(=O)[C@H](CCCCN)NC(=O)[C@H](CC(C)C)NC(=O)[C@H](CC(N)=O)NC(=O)[C@@H](N)Cc1c[nH]c2ccccc12)C(=O)N[C@@H](CC(C)C)C(N)=O [W1] | 42.4034% | 19.8521% | 
10 | CC[C@H](C)[C@H](N)C(=O)N[C@@H](CC(N)=O)C(=O)N[C@@H](CC(C)C)C(=O)N[C@@H](CCCCN)C(=O)N[C@@H](C)C(=O)N[C@@H](CC(C)C)C(=O)N[C@@H](C)C(=O)N1CCC[C@H]1C(=O)N[C@@H](CC(C)C)C(=O)N[C@@H](C)C(=O)N[C@@H](CCCCN)C(=O)N[C@@H](CCCCN)C(=O)N[C@H](C(=O)N[C@@H](CC(C)C)C(N)=O)[C@@H](C)CC [P8] | 8.428% | -8.536% | 
11 | CC[C@H](C)[C@H](N)C(=O)N[C@@H](CC(N)=O)C(=O)N[C@@H](CC(C)C)C(=O)N[C@@H](CCCCN)C(=O)N[C@@H](C)C(=O)N[C@@H](CC(C)C)C(=O)N[C@@H](C)C(=O)N[C@@H](C)C(=O)N[C@@H](Cc1c[nH]cn1)C(=O)N[C@@H](C)C(=O)N[C@@H](CCCCN)C(=O)N[C@@H](CCCCN)C(=O)N[C@H](C(=O)N[C@@H](CC(C)C)C(N)=O)[C@@H](C)CC [H9] | 18.6976% | -4.349% | 
12 | CC[C@H](C)[C@H](N)C(=O)N[C@@H](CC(N)=O)C(=O)N[C@@H](CC(C)C)C(=O)N[C@@H](CCCCN)C(=O)N[C@@H](C)C(=O)N[C@@H](CC(C)C)C(=O)N[C@@H](C)C(=O)N[C@@H](C)C(=O)N[C@@H](CC(C)C)C(=O)N[C@@H](C)C(=O)N[C@@H](CCCCN)C(=O)N[C@@H](Cc1ccc(O)cc1)C(=O)N[C@H](C(=O)N[C@@H](CC(C)C)C(N)=O)[C@@H](C)CC [Y12] | 47.3973% | 22.3509% | 
13 | CC[C@H](C)[C@H](N)C(=O)N[C@@H](CC(N)=O)C(=O)N[C@@H](CC(C)C)C(=O)N[C@@H](CCCCN)C(=O)N[C@@H](CO)C(=O)N[C@@H](CC(C)C)C(=O)N[C@@H](C)C(=O)N[C@@H](C)C(=O)N[C@@H](CC(C)C)C(=O)N[C@@H](C)C(=O)N[C@@H](CCCCN)C(=O)N[C@@H](CCCCN)C(=O)N[C@H](C(=O)N[C@@H](CC(C)C)C(N)=O)[C@@H](C)CC [S5] | 26.0666% | 9.929% | 
14 | CC[C@H](C)[C@H](N)C(=O)N[C@@H](CC(N)=O)C(=O)N[C@@H](CC(C)C)C(=O)N[C@@H](CCCCN)C(=O)N[C@@H](C)C(=O)N[C@@H](CC(C)C)C(=O)N[C@@H](C)C(=O)N[C@@H](C)C(=O)N[C@@H](CC(C)C)C(=O)N[C@@H](C)C(=O)N[C@@H](Cc1ccc(O)cc1)C(=O)N[C@@H](CCCCN)C(=O)N[C@H](C(=O)N[C@@H](CC(C)C)C(N)=O)[C@@H](C)CC [Y11] | 42.1135% | 16.0926% | 
